In patent US11819021B2, “Peptides and methods and uses thereof for modulating anaphase promoting complex (APC) activity” (University of Saskatchewan, priority 2017, dated 2023):
“Also recorded” adds a separate entry of the source.

Legend:
[1] = test system: yeast proteins; experiment: Yeast 2-hybrid assay for proteins interacting with the peptides; format: binding
[2] = target: T1, Apc5 (Saccharomyces cerevisiae, UniProt Q08683); experiment: Yeast 2-hybrid (Y2H) binding of peptide prey to Apc5 bait; conditions: galactose-inducible Trx-scaffold peptide prey
T1 construct: expressed in transfected cells; host or cells: yeast Y2H cells
T1 sequence (Q08683 1-685): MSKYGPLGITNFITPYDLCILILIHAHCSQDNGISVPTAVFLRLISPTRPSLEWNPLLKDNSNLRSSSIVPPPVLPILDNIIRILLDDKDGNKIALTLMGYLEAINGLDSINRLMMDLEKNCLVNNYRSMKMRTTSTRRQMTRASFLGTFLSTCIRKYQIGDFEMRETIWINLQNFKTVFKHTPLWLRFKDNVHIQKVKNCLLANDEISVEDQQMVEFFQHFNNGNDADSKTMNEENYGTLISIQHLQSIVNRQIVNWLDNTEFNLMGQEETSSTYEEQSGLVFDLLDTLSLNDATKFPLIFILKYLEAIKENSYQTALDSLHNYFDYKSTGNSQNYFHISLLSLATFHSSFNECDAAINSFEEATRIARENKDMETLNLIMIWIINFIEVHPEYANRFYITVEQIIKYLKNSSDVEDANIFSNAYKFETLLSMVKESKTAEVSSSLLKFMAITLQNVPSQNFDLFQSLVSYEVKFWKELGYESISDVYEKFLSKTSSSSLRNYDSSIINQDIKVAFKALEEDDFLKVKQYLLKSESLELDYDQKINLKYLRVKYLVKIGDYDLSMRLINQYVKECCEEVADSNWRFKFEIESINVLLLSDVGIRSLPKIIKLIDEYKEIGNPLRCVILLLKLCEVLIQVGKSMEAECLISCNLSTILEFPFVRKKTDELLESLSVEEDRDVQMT
Experimental: (§1) The reverse genetic screen utilized a yeast 2-hybrid (Y2H) protocol that selected for peptides that bound to the APC subunits Apc5 or Apc10 (see FIG. 5 for APC structure), to assess whether peptide-binding might modify APC function. Peptides that bound APC subunits were then assayed for those that suppressed APC mutant defects.
(§2) Random small peptides were cloned into the TrxA scaffold (library provided by R. Geyer, U of S) and expressed from a galactose-inducible Y2H prey vector in cells harboring either APC5 or APC10 Y2H bait vectors (APC5/APC10 bait constructs complement APC mutant defects).
(§3) Over 100 peptides that bound either Apc5 or Apc10 were recovered from millions screened. Six peptides that reproducibly interacted with the Apc10 bait construct in Y2H assays were examined further. Vectors expressing these 6 peptides were transformed into APC mutant cells and assessed for ts growth.

[3] = test system: APC mutant (apc5 temperature sensitive mutant and/or apc10Δ mutant); experiment: Viability/growth of APC mutant yeast cells; format: cell-based
Experimental: (§4) A. apc5^CA cells expressing small peptides were assayed for replicative life span (RLS). B. Cells expressing HTZ1 were grown under stress conditions. HTZ1 expression, even at low levels, suppresses apc5^CA and apc10Δ defects. The cells shown were transformed with either an empty vector or GAL inducible HTZ1. On 2% glucose, the construct is weakly expressed, and this is enough to increase growth of APC mutants at 30° C.
Examples of yeast cells with defective anaphase promoting complex (APC) function include apc5 and apc10 mutants. An example of an apc5 mutant is the apc5 temperature sensitive mutant described herein. An example of an apc10 mutant is the apc10 deletion mutant described herein.
as §1, §3

[4] = target: T2, Apc10 (Saccharomyces cerevisiae, UniProt P53068); experiment: Yeast 2-hybrid (Y2H) binding of peptide prey to Apc10 bait; conditions: galactose-inducible Trx-scaffold peptide prey
T2 construct: expressed in transfected cells; host or cells: yeast Y2H cells
T2 sequence (P53068 1-250): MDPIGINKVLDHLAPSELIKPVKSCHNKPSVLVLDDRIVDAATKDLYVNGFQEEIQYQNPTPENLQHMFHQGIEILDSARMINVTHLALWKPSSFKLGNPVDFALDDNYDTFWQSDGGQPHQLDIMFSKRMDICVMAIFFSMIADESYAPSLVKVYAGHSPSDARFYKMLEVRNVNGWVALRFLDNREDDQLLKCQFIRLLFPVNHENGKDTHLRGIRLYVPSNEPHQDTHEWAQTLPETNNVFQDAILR
Experimental: as §1
A library of random small peptides were cloned into a Thioredoxin (Trx) scaffold (see FIG. 6 for Trx-aptamer structure) and expressed from a galactose-inducible Y2H prey vector in cells expressing the Apc10 bait vector (the modified Apc10 is still part of the complete APC complex). Six peptides that reproducibly interacted with the Apc10 bait construct in Y2H assays were identified (FIG. 1A) and were examined further.
as §2, §3

[5] = test system: apc10Δ cells; experiment: Spot dilution growth of apc10Δ cells expressing peptides; format: cell-based, yeast
Description: A. Y2H cells expressing the APC subunit bait and the galactose inducible Apc10 peptide prey grown on glucose or galactose. Cells co-expressing the Apc5 or Apc10-bait and Apc10 aptamer-prey vectors were spotted onto the appropriate media, in the presence or absence of galactose (the aptamers are Gal inducible), to confirm 2-hybrid interactions. Growth on trp-his-media ensures both plasmids are maintained. A 2-hybrid interaction will drive expression of the ADE2 gene, allowing growth on ade-media. B. Aptamers that bind Apc10 can suppress APC mutant phenotypes. Spot dilutions of apc10Δ cells expressing an empty vector control or the one of 6 Apc10 aptamers tested. Log phase cells were 10-fold serially diluted and spotted onto plates containing either 2% glucose or 2% galactose. The plates were then incubated at 30° C. (permissive temperature) and 34° C. (restrictive stress). C. Peptides identified as binding to the yeast Apc10 APC subunit using the yeast 2-hybrid screen increase growth of cells on stress conditions. A series of APC binding peptides were transformed into wild type yeast cells, spot diluted, and grown at 30° C. on media supplemented with the normal carbon source (2% glucose). Alternatively, cells were grown on media supplemented with 2% galactose to induce a carbon stress. D. Peptides were expressed in apc5^ts temperature sensitive cells and grown on glucose or galactose media at 30° C.
The cells were exposed to 5 sec of UV from a UV box prior to incubation.
The six peptide expressing vectors were transformed into apc10Δ cells and assessed for temperature sensitive growth. Two of the peptides, C43-4 and C2-4B, suppressed the apc10Δ growth phenotype at 30 and 34° C. (FIG. 1B-D). […]
Over 100 peptides that bound either Apc5 or Apc10 were recovered from millions screened. […] Vectors expressing these 6 peptides were transformed into APC mutant cells and assessed for ts growth.
Methods • 1. […] The growth of the cells was determined by measuring the optical density (OD) of the cells at 600 nm (OD600) • 3. […]

[6] = test system: wild type (WT) yeast cells; experiment: Spot dilution growth and stress resistance of wild type yeast cells expressing peptides; format: cell-based
Experimental: (§5) A. apc5^CA (temperature sensitive allele) cells were transformed with C43-4, C2-4B or an empty vector. Cells grown overnight in 2% Glu were struck onto 2% Glucose plates and used for the yeast replicative lifespan (RLS) assay. B. Wild type (WT) cells transformed with C43-4, C2-4B or an empty vector were grown to stationary phase in 2% Glu media, then after 2 days spot diluted onto 2% Glu or 2% Gal to induce expression of the aptamers.
The cells were exposed to 5 sec of UV from a UV box prior to incubation. The plus signs define growth compared to the empty vector control.
(§6) The six peptide expressing vectors were transformed into apc10Δ cells and assessed for temperature sensitive growth. Two of the peptides, C43-4 and C2-4B, suppressed the apc10Δ growth phenotype at 30 and 34° C. (FIG. 1B-D). […] However, C43-4 and C2-4B increased replicative and chronological lifespan in both apc5^CA and WT cells, respectively (FIG. 2A). […] H2O2 induces oxidative stress whereas galactose induces a carbon stress.
These cells were spot diluted on Trp-plates and grown at the temperatures shown and/or exposed to ultraviolet (UV) irradiation (FIG. 11). At low level expression on glucose, some of the mutations caused stress dependent phenotypes.
Methods • 1. Cells were cultured overnight in Trp-2% glucose media • 2. The growth of the cells was determined by measuring the optical density (OD) of the cells at 600 nm (OD600) • 3. Cells were diluted to OD600 of 1 with fresh culture media • 4. 100 ul of each culture was pipetted into a well of a 96 well plate • 5. 10 ul of the each starting culture was pipetted into 90 ul of water in 4 additional wells to make a 10-fold serial spot dilution • 6. 5 ul from each serial dilution was spotted onto plates containing standard growth media with either 2% glucose or 2% galactose using a multi-pipettor • 7. The plates were exposed to UV • 8. The plates were then placed at room temperature, 30, 34 or 37° C. for 3-7 days • 9. The plates were scanned and saved as tiff files

[7] = test system: apc5^CA cells; experiment: Yeast replicative lifespan (RLS) assay; format: cell-based
Experimental: as §5, §4

[8] = test system: WT cells; experiment: Chronological lifespan of WT yeast cells; format: cell-based
Experimental: as §5, §6

[9] = test system: APC; experiment: Yeast 2-hybrid binding to the APC
Description: As used herein, the expression “binds to the APC” refers to a peptide that binds to at least one subunit of the APC, for example Apc5 or Apc10. Binding can be measured for example, by any method known in the art, including, but not limited to a yeast 2-hybrid assay.
as §1, §2

[10] = test system: apc5^CA temperature sensitive mutant; experiment: Forward genetic screen: rescue of apc5^CA temperature sensitive growth; format: cell-based, yeast
Description: Using a forward genetic screen to test whether temperature sensitive (ts) APC mutants expressing random small peptides could grow at restrictive temperatures, millions of small peptides were rapidly screened for those that could restore mutant APC phenotypes. Peptides that rescued the apc5^CA ts (temperature sensitive) defect were recovered including peptides Y65 and Y36.
In the forward screens, with galactose-inducible TrxA-based peptide libraries, in cells harboring the apc5^CA ts allele, over 200 peptides (from millions screened) suppressed the ts phenotype. Several recovered plasmids were sequenced.

Row | Sequence | Proteins identified as interacting in a yeast 2 hybrid assay [1] | Binds Apc5 in a yeast 2 hybrid assay [2] | Viability of an APC mutant [3] | Binds Apc10 in a yeast 2 hybrid assay [4] | other results
1 | CECLETETFHPITRHLIVPV [9-5] | Interacts with Die2, Tim44, Yrm1 | Binds Apc5 | increases the viability |  | Binds Apc5 in a yeast 2 hybrid assay ([2]; listed as SEQ ID NO. 3): binds Apc5
2 | GALKEVCICIVESVGGEVFSGP [compound 4] | Identified as interacting with Hxt2,; also recorded: Mad2, Ubc7, Rpp2, Kap122, Sfa1,; also recorded: Oac1 and Vps13 in a yeast 2- | Binds Apc5 | increases the viability |  | Binds Apc5 in a yeast 2 hybrid assay ([2]; listed as SEQ ID NO. 6): binds Apc5
3 | GRMLMTYLMYFMVLWVPRPWGPPL [1-8] |  |  | increases the viability | Binds Apc10 | Binds Apc10 in a yeast 2 hybrid assay ([4]; listed as SEQ ID NO: 8): binds Apc10
4 | NGSSHNDARVRRLTLISRLC (Artificial Sequene) [C43-4-3, Version of C43-4 where the leucine residue at position 8 is replaced with alanine] |  |  |  | binds Apc10 | Toxicity in apc10Δ cells ([5]; glucose or galactose media, 5 sec UV (FIG. 13)): remained toxic; Resistance to UV stress compared to C43-4 cells ([6]; FIG. 11, UV treated, for example at room temperature): increased resistance to UV stress; Growth compared to C43-4 cells ([6]; FIG. 11, for example at room temperature): increased growth; Stress resistance at low level expression ([6]; WT cells on glucose, temperature and/or UV stress, versus empty vector): increased stress resistance further
5 | PSYNTIKYHETHGGRHPRRQPKRPI [3-1] | Identified as interacting with Sld5,; also recorded: Hms2, Gnt1 and Vnx1 in a yeast |  | increases the viability | Binds Apc10 | Binds Apc10 in a yeast 2 hybrid assay ([4]; listed as SEQ ID NO. 5): binds Apc10
6 | RMPQWWQWMWV [C2-4B, Peptide aptamer with homology to yeast protein Sum1] |  | Binds Apc5 | increases the viability |  | apc10Δ growth phenotype ([5]; 30 and 34° C.): suppressed; Replicative lifespan [7]: increased; Log phase growth of wild type (WT) cells ([6]; 30° C.): Neither C43-4 nor C2-4B influenced; Stress resistance when overexpressed in WT yeast cells ([6]; overexpressed, H2O2 oxidative stress, galactose carbon stress): increased stress resistance; Chronological lifespan [8]: increased; Binds Apc5 in a yeast 2 hybrid assay ([2]; listed as 02-4B): binds Apc5
7 | RRCLSIRTENLAWEGKFLRV [50-1] | Identified as interacting with Pxa1,; also recorded: Rrp12, and Hfm1 in a yeast 2- |  | increases the viability | Binds Apc10 | Binds Apc10 in a yeast 2 hybrid assay ([4]; listed as SEQ ID NO: 9): binds Apc10
8 | SKWTWRMCMSWTVDRFAPVPWP [24-1] |  | Binds Apc5 | increases the viability |  | Binds Apc5 in a yeast 2 hybrid assay ([2]; listed as SEQ ID NO: 7): binds Apc5
9 | SWLNGSGGVVLWLFSNFCCG [Y36] |  |  |  |  | Binding to the APC in a yeast 2HY assay [9]: not bind the APC in a yeast 2HY; apc5^CA temperature sensitive (ts) growth / viability of an apc5 temperature sensitive mutant [10]: increases the viability; also recorded: rescued; also recorded: Rescues apc5^CA temperature
